Assay results as given in patent publication US20210154268A1, “COMBINATION THERAPY USING A PEPTIDE” (CYTOVATION AS, priority 2018, published 2021).
Where no end group is shown, it is not given here. [ ]: non-standard residue; d: D form.

Experiments:
[1] = system: MC38 colon carcinoma cells; experiment: MC38 colon carcinoma mouse model, tumour volume by caliper; type: in vivo; settings: female C57/BL6N mice with MC38 tumours; CyPep-1 2 mg/kg intratumoural days 1 and 2; anti-PD-1 antibody 5 mg/kg intraperitoneal days 4, 8, 11, 15; unpaired two-tailed t-test; combination P=0.02
Protocol: Female C57/BL6N mice were shaved at the intended site of tumour inoculation. 4 days later the mice were implanted with 5×10^5 MC38 colon carcinoma cells in a mixture of 50% PBS and 50% matrigel in a total injection volume of 100 μl.
Tumour sizes were measured by caliper. When the median tumour volume reached 100 mm^3, 40 mice were randomised to four groups: 1) Ctr_IT; 2) Ctr_IT_PD1; 3) CyPep_IT; and 4) CyPep_IT_PD1.
The Ctr_IT group were administered 0.05 ml/kg intratumoural PBS on days 1 and 2.
The Ctr_IT_PD1 group were administered 0.05 ml/kg/day intratumoural PBS on days 1 and 2, and 5 mg/kg intraperitoneal anti-PD-1 antibody on days 4, 8, 11 and 15. The anti-PD-1 antibody was administered in PBS at a concentration of 1 mg/ml.
The CyPep_IT group were administered 2 mg/kg CyPep-1 on days 1 and 2. Administration was intratumoural in PBS at a concentration of 40 mg/ml.
The CyPep_IT_PD1 group were administered 2 mg/kg intratumoural CyPep-1 in PBS at a concentration of 40 mg/ml on days 1 and 2; and 5 mg/kg intraperitoneal anti-PD-1 antibody on days 4, 8, 11 and 15, in PBS at a concentration of 1 mg/ml.
All groups were standardised prior to checkpoint inhibitor administration by excluding animals with tumours+/−>2X average at day three. […] Average tumour volumes of the groups were analysed by unpaired two-tailed t-test, and the tumours were also histologically analysed.

cancer cells = settings: in vitro; cited from earlier work
[2] = system: Gram-positive and Gram-negative bacteria; settings: medically-relevant species of Gram-positive and Gram-negative bacteria; cited from earlier work
tumour = settings: animal models of disease; cited from earlier work

For “CyPep-1: all D-amino acid peptide of SEQ ID NO: 1; Conductin/Axin2 fragment coupled to the C-terminus of the HIV-TAT cell-penetrating peptide ([dY]G[dR][dK][dK][dR][dR][dQ][dR][dR][dR]G[dK][dT][dL][dR][dV][dA][dK][dA][dI][dY][dK][dR][dY][dI][dE])”, the “tumour growth compared to the control group which received only PBS” value [1] is listed as “no statistically-significant difference”, the “selective cytotoxicity towards cancer cells” value (cancer cells) is listed as “selectively cytotoxic towards cancer cells” and the bacteriocidal effect [2] is listed as “potent bacteriocidal effect”. The anti-tumour effect (tumour) was “strong anti-tumour effect” and the tolerability (tumour) was “well tolerated”.
